# Reference: patent US4432732A, “Method for predicting properties of a chemical compound” (priority 1982, dated 1984)
# “Also recorded” adds a separate entry of the source. Where a SMILES comes first, the peptide text is derived from it. [ ]: non-standard residue; d: D form. The star is where a group is joined. ξ: configuration not given here. ξS = NC(CO)C(=O)O; OiPr = CC(C)O*
# Key:
# [1] = cited from earlier work; for taste in words: bitter or sweet taste; for sweetness, times sweeter than sucrose: taste of sucrose is 1
# [2] = acute toxicity, LD50 (intravenous dose, small animals); conditions: in vivo, LD50 (mg/kg) divided by molecular weight, multiplied by 100
# Description: Conventionally, the degree of toxicity of a compound has been known only after actual dose. LD50 data for small animals (intravenous dose) contained in the Merck Index (9th edition) were thoroughly taken to use as a learning set, which amounts to more than 300 compounds. The predictability of this chart was tested with 82 other compounds.
# Toxicity scale used for this study. Unit of ordinary LD50 values are mg/kg, where mg is the quantity of substance dosed for 50% lethality and kg is the weight of the test animal.
# To standardize this value on the millimore base, the LD50 values is divided by the molecular weight. In FIG. 1, the quantity is further multiplied by 100 to avoid unfamiliarly small digits.
# small animals = conditions: intravenous dose; cited from earlier work
SMILES,taste in words [1],further results
N[C@@H](CC(=O)O)C(=O)N[C@@H](Cc1ccccc1)C(=O)O [(II)] (H-Asp-Phe-OH),bitter taste is observed,
N[C@@H](CC(=O)O)C(=O)N[C@@H](Cc1ccc(O)cc1)C(=O)O [(III)] (H-Asp-Tyr-OH),bitter taste is observed,
CNC(=O)[C@H](Cc1ccc(O)cc1)NC(=O)[C@@H](N)CC(=O)O [(IV)] (H-Asp-Tyr-NHMe),bitter taste is observed,
COC(=O)[C@H](Cc1ccccc1)NC(=O)[C@@H](N)CCC(=O)O [(V)],bitter taste is observed,
N[C@@H](CCC(=O)O)C(=O)N[C@@H](Cc1ccccc1)C(=O)O [(VI)],bitter taste is observed,
CC(C)OC(=O)C(CO)NC(=O)[C@@H](N)CC(=O)O (stereo partly shown) [(VII)] (H-Asp-[ξS]-OiPr),sweet peptides,"sweetness, times sweeter than sucrose [1]: ~120 times"
COc1cc(C(=O)OCCCN2CCCN(CCCOC(=O)c3cc(OC)c(OC)c(OC)c3)CC2)cc(OC)c1OC [Compound II],,LD50 [2]: 328 µmol/kg; observed LD50 (small animals): 26.6 mg/kg
CC(=O)Nc1c(I)c(NC(C)=O)c(I)c(C(=O)O)c1I [Compound I],,LD50 [2]: 22900 µmol/kg; observed LD50 (small animals): 14700 mg/kg
"COC(=O)[C@H](Cc1ccccc1)NC(=O)[C@@H](N)CC(=O)O [aspartame, reference compound] (H-Asp-Phe-OMe)",strong sweetness; also recorded: lacking bitter taste,"sweetness, times sweeter than sucrose [1]: about 150 times"
"O=S(=O)(O)NC1CCCCC1 [cyclamic acid, reference compound]",lacking bitter taste,
"O=C1NS(=O)(=O)c2ccccc21 [saccharine, reference compound]",slight bitterness,
"OC[C@H]1O[C@@](CO)(O[C@H]2O[C@H](CO)[C@@H](O)[C@H](O)[C@H]2O)[C@@H](O)[C@@H]1O [sucrose, reference compound]",lacking bitter taste,
